# Measurements reported in US10465854B2, “Temperature-stable paraffin inhibitor compositions” (Ecolab USA Inc., priority 2016, dated 2019).
# Read-outs that look alike come from different tables or passages of the source.
# Experiments:
# [1] = LogP value in octanol/water; settings: for logP: octanol/water
# [2] = Pour point observation according to ASTM D-97; type: physicochemical
# Source text: A number of working examples were composed and tested for flow indicative of solidification point depression (e.g., pour point temperatures). The compositions tested herein are said to “pour or flow” at the indicated temperature when the PIC of each working example, vertically at rest on a substantially horizontal surface the cylindrical container (radius 1 inch, height 2 inches), flows observably within about 10 seconds when tipped to a substantially horizontal position. This amount of flow is known to be sufficient to indicate that the composition is pourable or pumpable for use in the field, where such concentrates are applied to one or more crude oil transportation or storage systems. The flowing samples are said to have a pour point at temperatures where the flow is observed. The pour point is above the solidification temperature for a given sample. The effect on pour point was observed according to ASTM D-97 test method (including storage for a half hour in a freezer set the associated temperature prior to observation for pour or flow).
# The effect on pour point was observed according to ASTM D-97 test method (storage for at least one half hour in a freezer set at a specific temperature (e.g., −60° C.)). The specific low Log P molecules, amounts thereof, amounts of PI polymer, with the balance comprising a refined petroleum distillate or solvent such as HAN; and pour point observations according to ASTM D-97 are listed in Table 2 below.
# A comparison of pour points was made between control samples having no low Log P molecules and samples including low Log P molecules to determine the total amount of pour point depression.
# The relative amounts of pour point depression of PICs having combination nonyl phenol formaldehyde resin and alpha olefin/maleic anhydride (OMAC) copolymer PIs (specifically OMAC amide polymers), were tested by the ASTM D-97 method. A comparison of pour points was made between control samples having no low Log P molecules and samples including low Log P molecules to determine the total amount of pour point depression.
# A low Log P ether molecules was tested for pour point depression in various PICs. The 2-methoxy ethanol was tested in various amounts in PICs and in PICs having various amounts of PI polymer (alkyl phenol formaldehyde resin) therein.
# [3] = compounds of table 1 tested for pour point and freezing point
compound,measurement,setting,value
CCOCCO,logP,[1],-0.05
CC1COC(=O)O1 (stereo not shown),logP,[1],0.37
O=C1CCCCN1,logP,[1],0.33
CCCCOCCO,logP,"[1]; LogP, Table 1",1.01
O=C1OCCO1,logP,[1],0.01
CN1CCCC1=O,logP,[1],0.07
CN1CCCCC1=O,logP,[1],0.57
CNC(=O)NC,logP,[1],-0.25
COCC(C)OC(C)=O (stereo not shown),logP,[1],0.73
2-methoxy ethanol,logP,[1]; Table 1,−0.43
same,Log P,[1]; text b150,−0.43
same,suitability as pour point depressant in PIC compositions,[2]; [3],showed promise as pour point depressants
same,lowered the pour point by,[2]; versus the PIC of working example 28,about 90 °C
"CC(O)CO (stereo not shown) [1,2-propanediol]",suitability as pour point depressant in PIC compositions,[2]; [3],showed promise as pour point depressants
"C1COCCO1 [1,4-dioxane]",suitability as pour point depressant in PIC compositions,[2],showed promise as pour point depressants
"CCCCC(CC)CO (stereo not shown) [2-Ethyl Hexanol, 2-ethyl hexanol]",logP,[1],2.87
same,logP,[1]; Table 1,2.87
"O=C1CCCN1 [2-Pyrollidone, 2-pyrrolidone]",logP,[1],-0.18
same,logP,[1]; Table 1,−0.18
same,suitability as pour point depressant in PIC compositions,[2]; [3],showed promise as pour point depressants
"O=C1COCCN1 [3-Ketomorpholine, 3-ketomorpholine]",logP,[1],-0.49
same,logP,[1]; Table 1,−0.49
"O=C1CCCO1 [Butryolactone, butyrolactone]",logP,"[1]; LogP, Table 7, of the low LogP molecule type",-0.59
same,suitability as pour point depressant in PIC compositions,[2],showed promise as pour point depressants
CC(C)CO [Isobutanol],logP,[1],0.8
CC(C)O [Isopropanol],suitability as pour point depressant in PIC compositions,[2]; [3],showed promise as pour point depressants
CO [Methanol],logP,[1],-0.32
same,logP,[1]; Table 1,−0.32
same,pour point depressed by,[2],70 °C
same,suitability as pour point depressant in PIC compositions,[2],showed promise as pour point depressants
CN(C)CCO [dimethylethanolamine],suitability as pour point depressant in PIC compositions,[2]; [3],showed promise as pour point depressants
O=C1CCCO1 [drawing 12],logP,[1]; Table 1,−0.57
CN(C)CCO [drawing 17],logP,"[1]; LogP, Table 1",-0.29
C1COCCO1 [drawing 23],logP,[1],-0.23
